Test results from US20240376092A1 (priority 2021, published 2024).

tested on: HEK293 cells expressing ΔCR PrP; test: cells; type: cell-based; set-up: Emax: dose or concentration left out as unconfirmed; conditions: HEK293, 48 h, read-out: % RMAX: maximum rescuing effect, expressed as percentage of the effect of SM3(LD24) at the same concentration

Question: How did the Emax turn out when C=CCNC(=O)CN1c2ccc(Br)cc2-c2ccccc2S1(=O)=O [SM164] was run?
Answer: 53.7%

same assay, conditions: HEK293, 48 h; 1 μM; read-out: % RMAX: maximum rescuing effect, expressed as percentage of the effect of SM3(LD24) at the same concentration

Question: O=C1C(N2c3ccc(Br)cc3-c3ccccc3S2(=O)=O)CCN1C1CCCCC1 (racemic) [SM11, (R,S)-3-(9-Bromo-5,5-dioxido-6H-dibenzo[c,e][1,2]thiazin-6-yl)-1-cyclohexylpyrrolidin-2-one] was tested. Which Emax at 1 µM did it give?
Answer: 43.9%

Question: How did the Emax at 1 µM turn out when O=C(CN1c2ccc(Br)cc2-c2ccccc2S1(=O)=O)NC1CCCC1 [SM4, 2-(9-Bromo-5,5-dioxido-6H-dibenzo[c,e][1,2]thiazin-6-yl)-N-cyclopentylacetamide] was run?
Answer: 66.6%

Question: Which Emax at 1 µM does the source give for O=C(CN1c2ccc(Br)cc2-c2ccccc2S1(=O)=O)NC1CCCCCC1 [SM5, 2-(9-Bromo-5,5-dioxido-6H-dibenzo[c,e][1,2]thiazin-6-yl)-N-cycloheptylacetamide] here?
Answer: 52.8%

Question: O=C(CN1c2ccc(Br)cc2-c2ccccc2S1(=O)=O)Nc1ccccc1 [SM6, 2-(9-bromo-5,5-dioxo-6H-dibenzo[c,e][1,2]thiazin-6 (5H)-yl)-N-phenylacetamide] was tested. Which Emax at 1 µM did it give?
Answer: 48.1%

Question: Which Emax at 1 µM does the source give for O=C(CN1c2ccccc2-c2ccccc2S1(=O)=O)NC1CCCCC1 [SM7, 2-(5,5-dioxido-6H-dibenzo[c,e][1,2]thiazin-6-yl)-N-cyclohexylacetamide] here?
Answer: 55.9%

Question: How did the Emax at 1 µM turn out when CN(C(=O)CN1c2ccc(Br)cc2-c2ccccc2S1(=O)=O)C1CCCCC1 [SM8, 2-(9-Bromo-5,5-dioxido-6H-dibenzo[c,e][1,2]thiazin-6-yl)-N-cyclohexyl-N-methylacetamide] was run?
Answer: 46.2%

Question: How did the Emax at 1 µM turn out when O=S1(=O)c2ccccc2-c2cc(Br)ccc2N1CCNC1CCCCC1 [SM9, N-[2-(9-bromo-5,5-dioxido-6H-dibenzo[c,e][1,2]thiazin-6-yl)ethyl]cyclohexanamine] was run?
Answer: 45.2%

Question: O=C(CCN1c2ccc(Br)cc2-c2ccccc2S1(=O)=O)NC1CCCCC1 [SM10, 3-(9-Bromo-5,5-dioxido-6H-dibenzo[c,e][1,2]thiazin-6-yl)-N-cyclohexylpropanamide] was tested. Which Emax at 1 µM did it give?
Answer: 45.1%

Question: O=C(CN1c2ccc(Br)cc2-c2ccccc2S1(=O)=O)NC1CCCCCCC1 [SM162] was tested. Which Emax at 1 µM did it give?
Answer: 71.8%

Question: With O=C(CN1c2ccc(Br)cc2-c2ccccc2S1(=O)=O)Nc1c(F)cccc1F [SM163] as the compound, how does the Emax at 1 µM read?
Answer: 104%

Question: Which Emax at 1 µM does the source give for O=C(CN1c2ccc(Br)cc2-c2ccccc2S1(=O)=O)NC1CC1 [SM165] here?
Answer: 65.6%

Question: For O=C(CN1c2ccc(Br)cc2-c2ccccc2S1(=O)=O)NCc1ccccc1 [SM166], which Emax at 1 µM is on record?
Answer: 48.6%

Question: Which Emax at 1 µM does the source give for O=C(CN1c2ccc(Br)cc2-c2ccccc2S1(=O)=O)NCc1ccco1 [SM167] here?
Answer: 56.6%

Question: How did the Emax at 1 µM turn out when CC(=O)c1cccc(NC(=O)CN2c3ccc(Br)cc3-c3ccccc3S2(=O)=O)c1 [SM168] was run?
Answer: 46.2%

Question: For CC(C)NC(=O)CN1c2ccc(Br)cc2-c2ccccc2S1(=O)=O [SM169], which Emax at 1 µM is on record?
Answer: 59.1%

Question: How did the Emax at 1 µM turn out when COCCNC(=O)CN1c2ccc(Br)cc2-c2ccccc2S1(=O)=O [SM170] was run?
Answer: 36.9%

Question: For Cc1cccc(NC(=O)CN2c3ccc(Br)cc3-c3ccccc3S2(=O)=O)c1 [SM171], which Emax at 1 µM is on record?
Answer: 102%

Question: How did the Emax at 1 µM turn out when O=C(CN1c2ccc(Br)cc2-c2ccccc2S1(=O)=O)NCC1CCCO1 (stereo not shown) [SM172] was run?
Answer: 40.6%

Question: For O=C(CN1c2ccc(Br)cc2-c2ccccc2S1(=O)=O)NCCC1=CCCCC1 [SM173], which Emax at 1 µM is on record?
Answer: 66%

Question: With CC(C)CNC(=O)CN1c2ccc(Br)cc2-c2ccccc2S1(=O)=O [SM174] as the compound, how does the Emax at 1 µM read?
Answer: 56.3%

Question: With CCC(C)NC(=O)CN1c2ccc(Br)cc2-c2ccccc2S1(=O)=O (stereo not shown) [SM175] as the compound, how does the Emax at 1 µM read?
Answer: 66.2%

Question: Which Emax at 1 µM does the source give for O=C(CN1c2ccc(Br)cc2-c2ccccc2S1(=O)=O)NCc1ccccn1 [SM176] here?
Answer: 37.9%

Question: With CC(C)(C)NC(=O)CN1c2ccc(Br)cc2-c2ccccc2S1(=O)=O [SM177] as the compound, how does the Emax at 1 µM read?
Answer: 58.4%

Question: O=C(CN1c2ccc(Br)cc2-c2ccccc2S1(=O)=O)NCCN1CCOCC1 [SM178] was tested. Which Emax at 1 µM did it give?
Answer: 44%

Question: For CC(C)(C)NC(=O)CN1c2ccc(Cl)cc2-c2ccccc2S1(=O)=O [SM179], which Emax at 1 µM is on record?
Answer: 59.8%

Question: How did the Emax at 1 µM turn out when CC(C)c1ccc2c(c1)-c1ccccc1S(=O)(=O)N2CC(=O)NC1CCCCC1 [SM180] was run?
Answer: 44%

Question: Cc1ccc2c(c1)-c1ccccc1S(=O)(=O)N2CC(=O)NC1CCCCC1 [SM181] was tested. Which Emax at 1 µM did it give?
Answer: 59.4%

Question: With O=C(CN1c2ccc(F)cc2-c2ccccc2S1(=O)=O)NC1CCCC1 [SM219] as the compound, how does the Emax at 1 µM read?
Answer: 54%

Question: With O=C(CN1c2ccc(Br)cc2-c2ccccc2S1(=O)=O)NCCCn1ccnc1 [SM220] as the compound, how does the Emax at 1 µM read?
Answer: 51.7%

Question: O=C(CN1c2ccc(Br)cc2-c2ccccc2S1(=O)=O)Nc1cccnc1 [SM221] was tested. Which Emax at 1 µM did it give?
Answer: 44.9%

Question: Which Emax at 1 µM does the source give for O=C(CN1c2ccc(Br)cc2-c2ccccc2S1(=O)=O)Nc1ccc(F)cc1 [SM222] here?
Answer: 85.1%

Question: CC(C)C(NC(=O)CN1c2ccc(Br)cc2-c2ccccc2S1(=O)=O)C(C)C [SM223] was tested. Which Emax at 1 µM did it give?
Answer: 54.7%

Question: For O=C(CN1c2ccc(F)cc2-c2ccccc2S1(=O)=O)NC12CC3CC(CC(C3)C1)C2 [SM224], which Emax at 1 µM is on record?
Answer: 71.5%

Question: For COc1ccc2c(c1)-c1ccccc1S(=O)(=O)N2CC(=O)NC1CCCCC1 [SM225, N-Cyclohexyl-2-(9-methoxy-5,5-dioxido-6H-dibenzo[c,e][1,2]thiazin-6-yl)acetamide], which Emax at 1 µM is on record?
Answer: 61.5%

Question: Which Emax at 1 µM does the source give for O=C(CN1c2ccc(O)cc2-c2ccccc2S1(=O)=O)NC1CCCCC1 [SM226, N-Cyclohexyl-2-(9-hydroxy-5,5-dioxido-6H-dibenzo[c,e][1,2]thiazin-6yl)acetamide] here?
Answer: 37.9%

Question: With O=C(CN1c2c(Br)cccc2-c2ccccc2S1(=O)=O)NC1CCCCC1 [SM227, 2-(7-Bromo-5,5-dioxido-6H-dibenzo[c,e][1,2]thiazin-6-yl)-N-cyclohexylacetamide] as the compound, how does the Emax at 1 µM read?
Answer: 41.1%

Question: With CN(C)CCOc1ccc2c(c1)-c1ccccc1S(=O)(=O)N2CC(=O)NC1CCCCC1 [SM230, N-Cyclohexyl-2-[9-[2-(dimethylamino)ethoxy]-5,5-dioxido-6H-dibenzo[c,e][1,2]thiazin-6-yl]acetamide] as the compound, how does the Emax at 1 µM read?
Answer: 44.9%

Question: With O=C(CN1c2ccc(Cl)cc2-c2ccccc2S1(=O)=O)NC1CCCCC1 [SM254, 2-(9-chloro-5,5-dioxido-6H-dibenzo[c,e][1,2]thiazin-6-yl)-N-cyclohexylacetamide] as the compound, how does the Emax at 1 µM read?
Answer: 127%

Question: How did the Emax at 1 µM turn out when O=C(CN1c2cc(Cl)c(F)cc2-c2ccccc2S1(=O)=O)NC1CCCCC1 [SM336, 2-(8-chloro-9-fluoro-5,5-dioxido-6H-dibenzo[c,e][1,2]thiazin-6-yl)-N-cyclohexylacetamide] was run?
Answer: 119%

Question: How did the Emax at 1 µM turn out when O=C(CN1c2ccc(F)c(Cl)c2-c2ccccc2S1(=O)=O)NC1CCCCC1 [SM337, 2-(10-chloro-9-fluoro-5,5-dioxido-6H-dibenzo[c,e][1,2]thiazin-6-yl)-N-cyclohexylacetamide] was run?
Answer: 109%

Question: O=C(CN1c2cc(C(F)(F)F)ccc2-c2ccccc2S1(=O)=O)NC1CCCCC1 [SM338, N-cyclohexyl-2-[5,5-dioxido-8-(trifluoromethyl)-6H-dibenzo[c,e][1,2]thiazin-6-yl]acetamide] was tested. Which Emax at 1 µM did it give?
Answer: 87.6%

Question: For O=C(CN1c2cccc(C(F)(F)F)c2-c2ccccc2S1(=O)=O)NC1CCCCC1 [SM339, N-cyclohexyl-2-[5,5-dioxido-10-(trifluoromethyl)-6H-dibenzo[c,e][1,2]thiazin-6-yl]acetamide], which Emax at 1 µM is on record?
Answer: 112%

Question: With CSc1ccc2c(c1)-c1ccccc1S(=O)(=O)N2CC(=O)NC1CCCCC1 [SM340, N-cyclohexyl-2-[9-(methylthio)-5,5-dioxido-6H-dibenzo[c,e][1,2]thiazin-6-yl]acetamide] as the compound, how does the Emax at 1 µM read?
Answer: 23%

Question: O=C(CN1c2cccc(Cl)c2-c2ccccc2S1(=O)=O)NC1CCCCC1 [SM585, 2-(10-chloro-5,5-dioxido-6H-dibenzo[c,e][1,2]thiazin-6-yl)-N-cyclohexylacetamide] was tested. Which Emax at 1 µM did it give?
Answer: 71.7%

Question: Which Emax at 1 µM does the source give for O=C(CN1c2cc(Cl)ccc2-c2ccccc2S1(=O)=O)NC1CCCCC1 [SM586, 2-(8-chloro-5,5-dioxido-6H-dibenzo[c,e][1,2]thiazin-6-yl)-N-cyclohexylacetamide] here?
Answer: 181%

Question: With O=C(CN1c2cc(Cl)cc(Cl)c2-c2ccccc2S1(=O)=O)NC1CCCCC1 [SM587, N-cyclohexyl-2-(8,10-dichloro-5,5-dioxido-6H-dibenzo[c,e][1,2]thiazin-6-yl)acetamide] as the compound, how does the Emax at 1 µM read?
Answer: 168%

Question: How did the Emax at 1 µM turn out when O=C(CN1c2ccc(C(F)(F)F)cc2-c2ccccc2S1(=O)=O)N[C@H]1CC[C@H](O)CC1 [SM588, 2-[5,5-dioxido-9-(trifluoromethyl)-6H-dibenzo[c,e][1,2]thiazin-6-yl]-N-(trans-4-hydroxycyclohexyl)acetamide] was run?
Answer: 10.6%

Question: For O=C(CN1c2ccc(C(F)(F)F)cc2-c2ccccc2S1(=O)=O)N[C@H]1CC[C@H](OS(=O)(=O)c2ccc([N+](=O)[O-])cc2)CC1 [SM589, trans-4-({2-[5,5-dioxido-9-(trifluoromethyl)-6H-dibenzo[c,e][1,2]thiazin-6-yl]acetyl}amino)cyclohexyl 4-nitrobenzenesulfonate], which Emax at 1 µM is on record?
Answer: 116%

Question: For Cc1n[nH]c2c1N(CC(=O)NC1CCCCC1)S(=O)(=O)c1ccccc1-2 [SM879, N-cyclohexyl-2-(3-methyl-5,5-dioxidopyrazolo[4,3-c][1,2]benzothiazin-4 (1H)-yl)acetamide], which Emax at 1 µM is on record?
Answer: 22.5%

Question: How did the Emax at 1 µM turn out when O=C(CN1c2ccc(C(F)(F)F)cc2-c2ccccc2S1(=O)=O)Nc1ccnc(Cl)c1 [SM880, N-(2-chloropyridin-4-yl)-2-[5,5-dioxido-9-(trifluoromethyl)-6H-dibenzo[c,e][1,2]thiazin-6-yl]acetamide] was run?
Answer: 78.3%

same assay, conditions: HEK293, read-out: IC50 (rescuing dose at 50%)

Question: O=C(CN1c2ccc(Cl)cc2-c2ccccc2S1(=O)=O)NC1CCCCC1 [SM254, 2-(9-chloro-5,5-dioxido-6H-dibenzo[c,e][1,2]thiazin-6-yl)-N-cyclohexylacetamide] was tested. Which IC50 did it give?
Answer: 300 nM

Question: With O=C(CN1c2cc(Cl)c(F)cc2-c2ccccc2S1(=O)=O)NC1CCCCC1 [SM336, 2-(8-chloro-9-fluoro-5,5-dioxido-6H-dibenzo[c,e][1,2]thiazin-6-yl)-N-cyclohexylacetamide] as the compound, how does the IC50 read?
Answer: 100 nM

Question: Which IC50 does the source give for O=C(CN1c2ccc(F)c(Cl)c2-c2ccccc2S1(=O)=O)NC1CCCCC1 [SM337, 2-(10-chloro-9-fluoro-5,5-dioxido-6H-dibenzo[c,e][1,2]thiazin-6-yl)-N-cyclohexylacetamide] here?
Answer: 970 nM

Question: Which IC50 does the source give for O=C(CN1c2cccc(C(F)(F)F)c2-c2ccccc2S1(=O)=O)NC1CCCCC1 [SM339, N-cyclohexyl-2-[5,5-dioxido-10-(trifluoromethyl)-6H-dibenzo[c,e][1,2]thiazin-6-yl]acetamide] here?
Answer: 340 nM

Question: How did the IC50 turn out when O=C(CN1c2cc(Cl)ccc2-c2ccccc2S1(=O)=O)NC1CCCCC1 [SM586, 2-(8-chloro-5,5-dioxido-6H-dibenzo[c,e][1,2]thiazin-6-yl)-N-cyclohexylacetamide] was run?
Answer: 350 nM

Question: Which IC50 does the source give for O=C(CN1c2cc(Cl)cc(Cl)c2-c2ccccc2S1(=O)=O)NC1CCCCC1 [SM587, N-cyclohexyl-2-(8,10-dichloro-5,5-dioxido-6H-dibenzo[c,e][1,2]thiazin-6-yl)acetamide] here?
Answer: 600 nM

Question: For O=C(CN1c2ccc(C(F)(F)F)cc2-c2ccccc2S1(=O)=O)N[C@H]1CC[C@H](OS(=O)(=O)c2ccc([N+](=O)[O-])cc2)CC1 [SM589, trans-4-({2-[5,5-dioxido-9-(trifluoromethyl)-6H-dibenzo[c,e][1,2]thiazin-6-yl]acetyl}amino)cyclohexyl 4-nitrobenzenesulfonate], which IC50 is on record?
Answer: 1050 nM
